Test results from patent US20210113563A1, “4-(4-CYANO-2-THIOARYL)DIHYDROPYRIMIDINONES FOR TREATING CHRONIC WOUNDS” (pH Pharma Co., Ltd., priority 2015, published 2021).
Entries after “also recorded” stand apart in the source; their conditions may differ.

Experiments:
[1] = biological target: T1, human neutrophil elastase (HNE) (Homo sapiens, UniProt P08246); details: read-out: Inhibition of human neutrophil elastase (HNE) IC50; cited from earlier work
T1 sequence (P08246 30-267): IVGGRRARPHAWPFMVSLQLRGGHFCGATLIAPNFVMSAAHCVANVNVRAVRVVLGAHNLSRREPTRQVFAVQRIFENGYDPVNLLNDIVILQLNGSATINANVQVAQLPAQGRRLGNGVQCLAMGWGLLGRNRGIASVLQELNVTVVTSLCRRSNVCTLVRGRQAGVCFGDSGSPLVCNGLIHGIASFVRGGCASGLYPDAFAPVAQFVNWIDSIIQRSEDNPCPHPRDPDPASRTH

HaCaT cells = experiment: HaCaT modified scratch assay (Oris Cell Migration Assay) with human neutrophil elastase; assay type: cell-based; details: 7.5 μg/mL hNE
Protocol: The modified scratch-wound assay is a simple, reproducible assay commonly used to measure basic cell migration parameters such as speed, persistence, and polarity. Cells are grown to confluence and a thin “wound” is introduced by scratching with a pipette tip. In the modified version, a plastic plug is placed into the tissue well while the cells adhere and grow to confluence. When the plug is pulled, a circular “wound” emerges. Cells at the wound edge polarise and migrate into the wound space. […] At the given time points, the size of the free area is measured.
Method: Oris Cell Migration Assay (collagen I coated) with HaCaT cells. Establishing a dose response curve for test compounds with and without addition of 7.5 μg/mL human neutrophil elastase (hNE).
For harvesting the cells, the medium was first extracted from the cell culture flask, then washed with PBS and 10-20 ml aspirated again. 2.5 ml (75 cm^2 flask bottom area) or 5 ml (162 cm^2) TrypLE Express were added, as well as the same amount of PBS followed by incubating the cells for 10 minutes (37° C.). The cells were transferred into a tube, centrifuged (250×g, 10 min, RT=room temperature) and resuspended in medium.
The following cell concentration was used: 7×10^5 cells/ml=7×10^4 cells/well/100 μl.
In this time, the cells adhered and grew to confluence. The compounds were then added to achieve the below indicated concentrations. The plugs were then removed.
Once all components were pipetted to the cells, one photo per well was taken including the “wound” (0 h). A Zeiss AxioObserver (5× lens, bright field, 5.5 V light exposure 2.2 ms) and the AxioVision software was used. […] 16 h later pictures were taken again.
The relative healing was calculated, i.e. the percentage of closed wound area compared to baseline at 0 h.
Wound healing %=100−(‘wound surface after x hours’*100/‘wound surface after 0 hours’)
From the calculated relative wound healing a graphic in GrapPad prism was created, and EC50 values were determined.
For evaluation of pictures the software ImageJ was used. For this, the ZVI files were exported within the AxioVision software as jpg. This jpg files were then opened by ImageJ. Using the Tools panel (Mode: 4-connected/Tolerance=5-20) the to be measured surface area was marked.

[2] = tested on: wounds of Tight Skin mice (TSK); experiment: Reepithelialization and visual healing of full thickness skin excision wounds in Tight Skin mice (TSK); assay type: in vivo; details: TSK mouse; for Wound closure (reepithelialization) in % of initial epidermal gap: d 12, CK16 staining
Text: OBJECTIVE: To evaluate wound closure/reepithelialization promoting effects of the Neutrophil Elastase Inhibitor Example 3 in a fibrosis-related model of delayed wound healing (Tight Skin Mouse, TSK). METHODS: Animals: mice, male+female, strain: B6.Cg-FBN1<Tsk>−/− (wt) and +/−(het), age: 5 weeks upon delivery, breeder: Bayer. Food (ssniff R/M-H) and water was provided ad libitum. Experimental procedure: Mice were randomized at day 0. At day 0, 3 full thickness excision wounds were induced. For that, animals were anesthetized (Rompun/Ketavet/NaCl 0.9% [1+3+16]) in […]. The lower back was shaved, then moistened with tap water. Pilca depilation cream was applied and left for 3-5 minutes to act, then wiped off. To prevent the animals from cooling down during the procedure, they were placed on warming mats. Skin was excised using 6 mm diameter round scalpels. After wake up mice were distributed to individual cages. Treatment: Day 0 to 11 twice daily per os. Example 3 was dissolved in PEG400 as a vehicle. Administration was twice daily (bid). Skin samples were harvested into formalin (3.7% in PBS) at day 12 after scarifying with isoflurane/O2/N2O anesthesia followed by dislocation of the cervical spine. After soaking in formalin (24-72 h), the samples were transferred to paraffin and then cut. Staining of cytokeratin 16 was performed using rabbit polyclonal anti-Keratin 16 (CK16, KRT16, ABIN265495), 1 mg/ml anti-CK16 antibody by IHC-Peroxidase (in a 1:100 dilution) EnVision+ System-HRP (DAB), for Rabbit Primary Antibodies (Dako #K4011).
Effects were most prominent on d7 and d9. All dosages were similarly effective, i.e. a clear dose response ratio remained to be established. […] Based on the size of the induced wounds, 6000 μm was set as 100%. The epidermal gap, i.e. the distance between the epidermal edges was measured by microscopic histometry. The width of the gap was subtracted from the initial wound. The delta represented the reepithelialized part of the wound and was expressed as reepithelialization in % of the initial wound diameter, i.e. 100% equaled complete reepithelialization or full wound closure.

Row | Compound | IC50 [1] [nM] | Correction of the reepithelialization-impairing effect of NE (in words) (HaCaT cells) | IC50 (HaCaT cells; Homo sapiens, 16 h) [nM] | Bottom (HaCaT cells; curve fit, 16 h) | Span (HaCaT cells; curve fit, 16 h) | Top (HaCaT cells; curve fit, 16 h) | Wound closure (reepithelialization) in % of initial epidermal gap ([2]; 2.5 mg/kg BW twice daily p.o.) [%] | Wound closure (reepithelialization) in % of initial epidermal gap ([2]; 5 mg/kg BW twice daily p.o.) [%] | Wound closure (reepithelialization) in % of initial epidermal gap ([2]; 10 mg/kg BW twice daily p.o.) [%] | Wound closure (reepithelialization) in % of initial epidermal gap ([2]; 20 mg/kg BW twice daily p.o.) [%] | Visual wound healing, wound area reduction over time (in words) ([2]; 2.5-20 mg/kg bid p.o., FIG. 1) | Reepithelialization vs. vehicle controls, histological (in words) ([2]; d 12)
1 | CC1=C(C#N)[C@@H](c2ccc(C#N)cc2S(C)(=O)=O)N(S(=O)(=O)C2CC2)C(=O)N1c1cccc(C(F)(F)F)c1 [Example 4, (4 S)-4-[4-Cyano-2-(methylsulfonyl)phenyl]-6-methyl-3-(cyclopropylsulfonyl)-2-oxo-1-[3-(trifluoromethyl)phenyl]-1,2,3,4-tetrahydropyrimidine-5-carbonitrile] | < 0.3 |  |  |  |  |  |  |  |  |  |  | 
2 | CCS(=O)(=O)c1cc(C#N)ccc1[C@@H]1C(C#N)=C(C)N(c2cccc(C(F)(F)F)c2)C(=O)N1C [Example 6, (4 S)-4-[4-Cyano-2-(ethylsulfonyl)phenyl]-3,6-dimethyl-2-oxo-1-[3-(trifluoromethyl)phenyl]-1,2,3,4-tetrahydropyrimidine-5-carbonitrile] | < 0.3 |  |  |  |  |  |  |  |  |  |  | 
3 | CC1=C(C#N)[C@@H](c2ccc(C#N)cc2S(C)(=O)=O)N(S(C)(=O)=O)C(=O)N1c1cccc(C(F)(F)F)c1 [Example 3, (4 S)-4-[4-Cyano-2-(methylsulfonyl)phenyl]-6-methyl-3-(methylsulfonyl)-2-oxo-1-[3-(trifluoromethyl)phenyl]-1,2,3,4-tetrahydropyrimidine-5-carbonitrile] | < 0.3 | almost entirely, potently and concentration-dependently be corrected; also recorded: potently and effectively able to block detrimental effects of NE | 57.4 | 90.41 | −47.65 | 42.75 | 95.8 | 93.9 | 99.5 | 100 | significant visual wound healing improving effects; also recorded: induced accelerated wound healing | reepithelialization was significantly further advanced
